Columns and labels:
[1] = target: T1, Serine/threonine-protein kinase D1 (Homo sapiens) (UniProt Q15139); assay: Selectivity interaction (Kinase panel (literature)) EUB0001199aCl PRKD1; details: at 1 µM
T1 sequence (whole entry): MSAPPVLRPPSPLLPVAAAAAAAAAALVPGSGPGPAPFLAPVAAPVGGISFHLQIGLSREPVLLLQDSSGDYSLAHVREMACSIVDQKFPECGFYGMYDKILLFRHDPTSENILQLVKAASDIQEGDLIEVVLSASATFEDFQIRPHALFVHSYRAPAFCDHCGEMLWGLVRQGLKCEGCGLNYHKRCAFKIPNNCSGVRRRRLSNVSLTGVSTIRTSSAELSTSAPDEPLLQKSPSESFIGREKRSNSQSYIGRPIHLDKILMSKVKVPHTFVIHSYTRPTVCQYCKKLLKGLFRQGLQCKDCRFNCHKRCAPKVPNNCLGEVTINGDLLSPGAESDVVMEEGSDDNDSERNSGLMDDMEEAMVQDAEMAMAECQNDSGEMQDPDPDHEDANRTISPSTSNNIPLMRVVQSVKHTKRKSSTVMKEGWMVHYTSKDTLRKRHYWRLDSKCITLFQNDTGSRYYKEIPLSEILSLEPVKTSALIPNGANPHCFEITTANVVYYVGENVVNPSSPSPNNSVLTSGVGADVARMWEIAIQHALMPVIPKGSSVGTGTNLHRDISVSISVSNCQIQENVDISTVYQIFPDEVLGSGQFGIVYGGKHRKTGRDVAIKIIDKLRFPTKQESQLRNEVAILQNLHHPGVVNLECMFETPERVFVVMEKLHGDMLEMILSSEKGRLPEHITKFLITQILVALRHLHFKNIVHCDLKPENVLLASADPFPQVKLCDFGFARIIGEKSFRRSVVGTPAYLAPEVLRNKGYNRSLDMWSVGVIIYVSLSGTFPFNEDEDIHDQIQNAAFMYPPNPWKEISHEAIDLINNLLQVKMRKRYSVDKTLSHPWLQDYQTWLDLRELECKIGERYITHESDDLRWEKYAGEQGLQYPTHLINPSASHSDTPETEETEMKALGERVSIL

[2] = target: T2, Mitogen-activated protein kinase kinase kinase 2 (Homo sapiens) (UniProt Q9Y2U5); assay: Selectivity interaction (KinomeScan (DiscoverX)) EUB0000666a MAP3K2; details: at 10 µM
T2 sequence (whole entry): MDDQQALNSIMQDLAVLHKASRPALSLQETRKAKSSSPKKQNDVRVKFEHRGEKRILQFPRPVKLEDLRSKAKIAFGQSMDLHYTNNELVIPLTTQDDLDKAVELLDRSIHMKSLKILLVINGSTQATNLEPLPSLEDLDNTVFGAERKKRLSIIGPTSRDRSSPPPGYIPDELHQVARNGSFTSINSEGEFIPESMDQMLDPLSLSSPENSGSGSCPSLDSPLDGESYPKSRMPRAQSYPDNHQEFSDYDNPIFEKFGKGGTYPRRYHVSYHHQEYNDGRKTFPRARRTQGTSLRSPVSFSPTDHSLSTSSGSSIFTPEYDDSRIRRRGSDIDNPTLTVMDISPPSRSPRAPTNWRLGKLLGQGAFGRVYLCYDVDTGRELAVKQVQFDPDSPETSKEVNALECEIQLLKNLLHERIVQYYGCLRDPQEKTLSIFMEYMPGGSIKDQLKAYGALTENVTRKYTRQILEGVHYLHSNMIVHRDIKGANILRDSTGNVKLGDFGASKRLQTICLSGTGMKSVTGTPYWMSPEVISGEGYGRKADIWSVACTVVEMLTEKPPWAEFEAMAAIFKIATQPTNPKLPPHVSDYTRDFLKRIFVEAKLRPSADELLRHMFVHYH

[3] = target: Histone-lysine N-methyltransferase ASH1L (Homo sapiens) (UniProt Q9NR48); details: at 10 µM
[4] = target: G protein-coupled receptor kinase 4 (Homo sapiens) (UniProt P32298); assay: Selectivity interaction (KinomeScan (DiscoverX)) EUB0000229b GRK4; details: at 10 µM
[5] = target: Bone morphogenetic protein receptor type-1B (Homo sapiens, UniProt O00238); assay: Selectivity interaction (KinomeScan (DiscoverX)) EUB0000595a BMPR1B; details: at 10 µM
[6] = target: TGF-beta receptor type-2 (Homo sapiens) (UniProt P37173); assay: Selectivity interaction (Ambit KINOMEscan and KiNATiv profiling in Jurkat cells) EUB0000090b TGFBR2; assay type: cell-based; details: at 1 µM
[7] = target: MAP kinase-activated protein kinase 2 (Homo sapiens, UniProt P49137); assay: Selectivity interaction (KinomeScan (DiscoverX)) EUB0000618a MAPKAPK2; details: at 10 µM
[8] = target: Casein kinase I isoform gamma-1 (Homo sapiens) (UniProt Q9HCP0); assay: Selectivity interaction (KinomeScan (DiscoverX)) EUB0000618a CSNK1G1; details: at 10 µM
[9] = tested on: Proto-oncogene tyrosine-protein kinase receptor Ret (Homo sapiens), P07949 [V804M]; details: at 10 µM
Proto-oncogene tyrosine-protein kinase receptor Ret (Homo sapiens), P07949 [V804M], sequence (P07949 whole entry V804M): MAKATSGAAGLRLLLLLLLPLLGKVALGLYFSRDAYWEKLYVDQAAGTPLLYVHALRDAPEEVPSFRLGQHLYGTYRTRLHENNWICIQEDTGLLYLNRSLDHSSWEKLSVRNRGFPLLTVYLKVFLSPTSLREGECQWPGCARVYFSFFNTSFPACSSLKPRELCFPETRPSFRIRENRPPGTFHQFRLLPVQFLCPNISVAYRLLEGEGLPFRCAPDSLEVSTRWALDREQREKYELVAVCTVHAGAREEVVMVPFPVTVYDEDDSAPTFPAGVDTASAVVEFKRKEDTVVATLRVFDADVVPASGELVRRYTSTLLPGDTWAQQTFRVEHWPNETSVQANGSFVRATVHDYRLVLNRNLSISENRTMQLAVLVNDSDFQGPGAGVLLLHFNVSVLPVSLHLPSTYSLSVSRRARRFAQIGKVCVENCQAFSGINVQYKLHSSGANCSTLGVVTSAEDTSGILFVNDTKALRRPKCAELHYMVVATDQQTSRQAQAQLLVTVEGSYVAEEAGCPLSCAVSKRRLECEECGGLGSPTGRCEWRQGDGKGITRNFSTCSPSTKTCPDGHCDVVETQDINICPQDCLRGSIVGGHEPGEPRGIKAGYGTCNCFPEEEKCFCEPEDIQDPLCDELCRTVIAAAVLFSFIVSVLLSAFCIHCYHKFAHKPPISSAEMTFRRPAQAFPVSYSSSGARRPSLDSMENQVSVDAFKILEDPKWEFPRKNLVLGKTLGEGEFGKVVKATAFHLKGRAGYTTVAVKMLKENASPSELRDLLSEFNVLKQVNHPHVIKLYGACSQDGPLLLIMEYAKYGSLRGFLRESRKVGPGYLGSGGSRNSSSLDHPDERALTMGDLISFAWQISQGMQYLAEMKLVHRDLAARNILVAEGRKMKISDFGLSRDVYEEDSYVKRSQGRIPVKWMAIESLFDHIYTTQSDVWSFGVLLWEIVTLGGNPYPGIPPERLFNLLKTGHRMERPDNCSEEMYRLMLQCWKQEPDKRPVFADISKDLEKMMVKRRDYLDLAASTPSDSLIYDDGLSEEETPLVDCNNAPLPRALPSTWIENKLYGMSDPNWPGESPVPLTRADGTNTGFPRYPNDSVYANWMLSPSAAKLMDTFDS

MAP kinase-activated protein kinase 2, sequence (P49137 whole entry, looked up, canonical isoform): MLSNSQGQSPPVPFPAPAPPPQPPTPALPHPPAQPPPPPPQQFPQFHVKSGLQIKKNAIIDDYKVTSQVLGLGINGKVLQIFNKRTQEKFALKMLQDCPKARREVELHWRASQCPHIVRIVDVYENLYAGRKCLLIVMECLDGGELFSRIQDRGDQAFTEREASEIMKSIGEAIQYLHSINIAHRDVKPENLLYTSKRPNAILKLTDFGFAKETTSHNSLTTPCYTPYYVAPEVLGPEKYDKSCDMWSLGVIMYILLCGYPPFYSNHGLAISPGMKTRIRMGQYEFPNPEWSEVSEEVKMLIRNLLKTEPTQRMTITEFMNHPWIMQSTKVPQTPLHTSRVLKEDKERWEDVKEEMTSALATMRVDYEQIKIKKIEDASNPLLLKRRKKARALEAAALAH
G protein-coupled receptor kinase 4 (Homo sapiens), sequence (P32298 whole entry, looked up): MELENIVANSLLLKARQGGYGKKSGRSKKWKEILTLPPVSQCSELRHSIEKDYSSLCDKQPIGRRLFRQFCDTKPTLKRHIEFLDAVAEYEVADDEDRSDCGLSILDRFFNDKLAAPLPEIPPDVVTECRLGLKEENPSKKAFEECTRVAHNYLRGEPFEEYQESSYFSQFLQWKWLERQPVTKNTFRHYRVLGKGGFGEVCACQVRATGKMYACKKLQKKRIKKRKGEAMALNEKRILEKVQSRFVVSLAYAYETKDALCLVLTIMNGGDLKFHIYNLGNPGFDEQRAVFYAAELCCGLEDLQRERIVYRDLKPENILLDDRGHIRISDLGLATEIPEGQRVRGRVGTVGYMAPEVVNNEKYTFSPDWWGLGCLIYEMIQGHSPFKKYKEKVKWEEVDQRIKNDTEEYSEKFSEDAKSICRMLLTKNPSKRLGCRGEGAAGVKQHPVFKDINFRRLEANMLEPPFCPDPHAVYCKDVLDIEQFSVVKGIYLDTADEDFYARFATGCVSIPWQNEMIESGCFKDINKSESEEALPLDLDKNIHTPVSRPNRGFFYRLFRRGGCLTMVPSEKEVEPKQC
Casein kinase I isoform gamma-1 (Homo sapiens), sequence (Q9HCP0 whole entry, looked up, canonical isoform): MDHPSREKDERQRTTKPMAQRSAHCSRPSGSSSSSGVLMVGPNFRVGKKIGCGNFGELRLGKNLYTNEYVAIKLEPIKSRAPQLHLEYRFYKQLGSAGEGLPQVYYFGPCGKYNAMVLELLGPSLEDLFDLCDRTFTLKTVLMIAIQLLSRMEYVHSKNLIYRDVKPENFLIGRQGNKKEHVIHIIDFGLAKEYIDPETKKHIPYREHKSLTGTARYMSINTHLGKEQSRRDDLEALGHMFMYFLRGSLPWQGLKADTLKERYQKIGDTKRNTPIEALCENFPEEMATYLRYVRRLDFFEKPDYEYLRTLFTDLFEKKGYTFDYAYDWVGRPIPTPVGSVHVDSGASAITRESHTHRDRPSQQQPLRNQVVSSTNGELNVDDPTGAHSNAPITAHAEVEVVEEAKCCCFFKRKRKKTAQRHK
TGF-beta receptor type-2 (Homo sapiens), sequence (P37173 whole entry): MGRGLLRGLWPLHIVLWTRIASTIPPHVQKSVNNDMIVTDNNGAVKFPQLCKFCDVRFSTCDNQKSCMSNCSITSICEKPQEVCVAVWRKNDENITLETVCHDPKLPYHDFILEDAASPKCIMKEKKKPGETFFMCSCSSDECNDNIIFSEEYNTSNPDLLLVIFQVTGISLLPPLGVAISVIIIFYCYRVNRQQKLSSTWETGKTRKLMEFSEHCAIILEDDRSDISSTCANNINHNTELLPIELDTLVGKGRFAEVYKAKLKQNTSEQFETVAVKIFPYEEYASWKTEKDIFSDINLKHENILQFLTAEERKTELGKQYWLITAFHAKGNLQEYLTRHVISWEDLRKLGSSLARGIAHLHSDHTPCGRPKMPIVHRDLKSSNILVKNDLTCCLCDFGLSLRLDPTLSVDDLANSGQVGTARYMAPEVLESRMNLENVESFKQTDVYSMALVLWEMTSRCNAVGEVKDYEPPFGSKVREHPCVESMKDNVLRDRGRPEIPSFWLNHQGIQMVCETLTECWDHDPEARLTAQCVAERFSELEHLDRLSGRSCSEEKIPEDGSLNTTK
Bone morphogenetic protein receptor type-1B, sequence (O00238 whole entry): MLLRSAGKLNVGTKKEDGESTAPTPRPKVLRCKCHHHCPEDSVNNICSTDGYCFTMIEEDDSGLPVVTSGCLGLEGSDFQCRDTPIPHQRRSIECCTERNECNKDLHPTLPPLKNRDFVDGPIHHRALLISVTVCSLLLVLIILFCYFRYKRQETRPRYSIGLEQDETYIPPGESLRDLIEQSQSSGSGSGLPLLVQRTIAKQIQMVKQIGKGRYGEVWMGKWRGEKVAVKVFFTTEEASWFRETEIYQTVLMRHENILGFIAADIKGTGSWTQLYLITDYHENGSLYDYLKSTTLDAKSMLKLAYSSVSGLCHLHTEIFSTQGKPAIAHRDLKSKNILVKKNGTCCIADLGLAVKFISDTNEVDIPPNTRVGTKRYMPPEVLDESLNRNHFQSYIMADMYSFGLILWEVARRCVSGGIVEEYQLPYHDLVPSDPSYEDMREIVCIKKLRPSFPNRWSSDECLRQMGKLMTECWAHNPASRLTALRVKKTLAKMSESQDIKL

CN1Cc2nccc(-c3cn(C)nc3-c3ccc(F)cc3)c2C1=O
% of inhibition [1]: -11%

O=C(NOC[C@H](O)CO)c1ccc(F)c(F)c1Nc1ccc(I)cc1F
% of control [2]: 100%

CNCCN1CCC(c2cc(CN(C)C(=O)c3cccc(Oc4ccccc4)c3)ccn2)CC1
% activity [3]: > 90%

COc1cc(N(C)c2ccnc3ccc(C(F)(F)F)cc23)cc(OC)c1OC
% binding [4]: 90%

COCC(=O)NC/C=C/c1ccc2ncnc(Nc3ccc(Oc4ccc(C)nc4)c(C)c3)c2c1 [CP-724714]
% of control [5]: 17%

CN(C)C/C=C/C(=O)Nc1ccc(C(=O)N2CCCC(Nc3ncc(Cl)c(-c4c[nH]c5ccccc45)n3)C2)cc1 (centres undefined)
% of control [6]: 87%

O[C@H]1CC[C@H](Nc2ncc3nc(Nc4c(F)cc(F)cc4F)n([C@H]4CCOC4)c3n2)CC1
% of control [7]: 71%
% of control [8]: 100%

Cc1cc([C@@H](C)Nc2ccccc2C(=O)O)c2nc(N3CCOCC3)cc(=O)n2c1 [AZD-6482]
% of control [9]: 100%

— ChEMBL document CHEMBL5465560, “Selectivity Literature for EUbOPEN Chemogenomic Library” (2024)
